Experimental findings from patent publication US10239863B2, “Factor XIa inhibitors” (Merck Sharp & Dohme Corp., priority 2013, dated 2019) are described below.

The IC50 is the concentration needed to halve the response being measured.

T1 sequence (P03951 388-625 limits assumed): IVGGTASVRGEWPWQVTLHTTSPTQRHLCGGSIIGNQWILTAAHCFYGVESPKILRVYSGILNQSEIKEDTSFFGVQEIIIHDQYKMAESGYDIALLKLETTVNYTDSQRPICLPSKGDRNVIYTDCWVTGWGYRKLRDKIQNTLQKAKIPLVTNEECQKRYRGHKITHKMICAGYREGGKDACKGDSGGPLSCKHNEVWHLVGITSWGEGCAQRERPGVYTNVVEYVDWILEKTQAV
T1 sequence (P03951 19-387 partner limits assumed): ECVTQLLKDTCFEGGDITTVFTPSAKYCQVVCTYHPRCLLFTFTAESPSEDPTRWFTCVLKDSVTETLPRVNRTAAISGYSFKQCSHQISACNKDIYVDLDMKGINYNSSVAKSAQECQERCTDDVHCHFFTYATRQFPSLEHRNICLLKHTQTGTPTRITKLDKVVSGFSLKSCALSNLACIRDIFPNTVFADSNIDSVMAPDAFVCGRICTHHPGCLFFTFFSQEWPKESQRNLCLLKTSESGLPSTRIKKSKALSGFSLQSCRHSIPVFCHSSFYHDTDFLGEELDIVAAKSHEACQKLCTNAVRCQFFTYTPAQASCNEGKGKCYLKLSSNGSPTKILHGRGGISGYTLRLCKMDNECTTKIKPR

The test concerns the target T1, purified human Factor XIa (Homo sapiens, UniProt P03951).
T1 construct: Determinations were made using purified human Factor XIa; purchased Sekisui Diagnostics
Kind of test: Factor XIa Assay (hydrolysis of fluorogenic substrate Z-Gly-Pro-Arg-AFC). The class given is biochemical. To be noted: purified human Factor XIa 40 pM; Z-Gly-Pro-Arg-AFC 100 μM; 50 mM HEPES pH 7.4; read-out: Factor XIa Inhibition (IC50 (nM)). As for the experimental part: The effectiveness of compounds of the present invention as inhibitors of Coagulation Factor XIa can be determined using a relevant purified serine protease, and an appropriate synthetic substrate. The rate of hydrolysis of the chromogenic or fluorogenic substrate by the relevant serine protease was measured both in the absence and presence of compounds of the present invention. Assays were conducted at room temperature or at 37° C. […] A decrease in the rate of fluorescence change in the presence of inhibitor is indicative of enzyme inhibition. Such methods are known to one skilled in the art. […]
Factor XIa determinations were made in 50 mM HEPES buffer at pH 7.4 containing 150 mM NaCl, 5 mM CaCl2, and 0.1% PEG 8000 (polyethylene glycol; JT Baker or Fisher Scientific). Determinations were made using purified human Factor XIa at a final concentration of 40 pM (Sekisui Diagnostics) and the synthetic substrate, Z-Gly-Pro-Arg-AFC, TFA salt (Sigma #C0980) at a concentration of 100 μM.
Times required to achieve equilibration between enzyme and inhibitor were determined in control experiments. Initial velocities of product formation in the absence (Vo) or presence of inhibitor (Vi) were measured. Assuming competitive inhibition, and that unity is negligible compared Km/[S], [I]/e, and [I]/e (where [S], [I], and e respectively represent the total concentrations, of substrate, inhibitor and enzyme), the equilibrium constant (Ki) for dissociation of the inhibitor from the enzyme can be obtained from the dependence of Vo/Vi on [I] shown in the following equation.
Regarding `NC1CCN([C@@H]2C[C@H](c3ccccc3)[C@H](C(=O)Nc3ccc(C(=O)O)cc3)N(C(=O)/C=C/c3cc(Cl)ccc3-n3cnnn3)C2)CC1` [Example 7, 4-({[(3′R,5′R,6′R)-4-amino-1′-{(2E)-3-[5-chloro-2-(1H-tetrazol-1-yl)phenyl]prop-2-enoyl}-5′-phenyl-1,3′-bipiperidin-6′-yl]carbonyl}amino)benzoic acid], the IC50 stood at 0.4 nM.

Turning to `O=C(O)c1ccc(NC(=O)[C@H]2[C@@H](c3ccccc3)C[C@@H](OC3CCNCC3)CN2C(=O)/C=C/c2cc(Cl)ccc2-n2cnnn2)cc1` [Example 10, 4-((2R,3R,5R)-1-((E)-3-(5-chloro-2-(1H-tetrazol-1-yl)phenyl)acryloyl)-3-phenyl-5-(piperidin-4-yloxy)piperidine-2-carboxamido)benzoic acid], the IC50 turned out to be 306 nM.

In the case of `NC1CCN(C2CC(c3ccc(F)cc3)C(c3nc(-c4cccnc4)c[nH]3)N(C(=O)/C=C/c3cc(Cl)ccc3-n3cnnn3)C2)CC1` (stereo not drawn) [Example 14, 1′-{(2E)-3-[5-chloro-2-(1H-tetrazol-1-yl)phenyl]prop-2-enoyl}-5′-(4-fluorophenyl)-6′-(4-pyridin-3-yl-1H-imidazol-2-yl)-1,3′-bipiperidin-4-amine], the IC50 amounted to 139 nM.

As to `NC1CCN([C@H]2C[C@@H](c3ccc(F)cc3)[C@@H](c3nc(-c4cccnc4)c[nH]3)N(C(=O)/C=C/c3cc(Cl)ccc3-n3cnnn3)C2)CC1` [Example 15, (3′S,5′S,6′S)-1′-{(2E)-3-[5-chloro-2-(1H-tetrazol-1-yl)phenyl]prop-2-enoyl}-5′-(4-fluorophenyl)-6′-(4-pyridin-3-yl-1H-imidazol-2-yl)-1,3′-bipiperidin-4-amine], the IC50 was determined as 82.1 nM.

On to `N#Cc1ccc(-c2cnc(C3C(c4ccc(F)cc4)CC(N4CCC(N)CC4)CN3C(=O)/C=C/c3c(C(F)(F)F)ccc(Cl)c3F)[nH]2)cc1` (stereo not drawn) [Example 16, 4-{2-[4-amino-1′-{(2E)-3-[3-chloro-2-fluoro-6-(trifluoromethyl)phen-yl]prop-2-enoyl}-5′-(4-fluorophenyl)-1,3′-bipiperidin-6′-yl]-1H-imidazol-5-yl}benzonitrile], for which the IC50 was determined as 35.6 nM.

Take `N#Cc1ccc(-c2cnc(C3C(c4ccc(F)cc4)CC(N4CCC(N)CC4)CN3C(=O)/C=C/c3c(C(F)(F)F)ccc(Cl)c3F)[nH]2)cc1` (stereo not drawn) [Example 17, 4-{2-[4-amino-1′-{(2E)-3-[3-chloro-2-fluoro-6-(trifluoromethyl)phen-yl]prop-2-enoyl}-5′-(4-fluorophenyl)-1,3′-bipiperidin-6′-yl]-1H-imidazol-5-yl}benzonitrile]: the IC50 worked out at 889 nM.

In the case of `N#Cc1ccc(-c2cnc(C3C(c4ccc(F)cc4)CC(N4CCC(N)CC4)CN3C(=O)/C=C/c3cc(Cl)ccc3-n3cnnn3)[nH]2)cc1` (stereo not drawn) [Example 18, 4-{2-[4-amino-1′-{(2E)-3-[5-chloro-2-(1H-tetrazol-1-yl)phenyl]prop-2-enoyl}-5′-(4-fluorophenyl)-1,3′-bipiperidin-6′-yl]-1H-imidazol-5-yl}benzonitrile], the IC50 stood at 16.5 nM.

`COC(=O)Nc1ccc(-c2cnc(C3C(c4ccc(F)cc4)CC(N4CCC(N)CC4)CN3C(=O)/C=C/c3c(C(F)(F)F)ccc(Cl)c3F)[nH]2)cc1` (stereo not drawn) [Example 19, methyl (4-{2-[4-amino-1′-{(2E)-3-[3-chloro-2-fluoro-6-(trifluorometh-yl)phenyl]prop-2-enoyl}-5′-(4-fluorophenyl)-1,3′-bipiperidin-6′-yl]-1H-imidazol-5-yl}phenyl)carbamate]: the IC50 was 67.8 nM.

As for `COC(=O)Nc1ccc(-c2cnc(C3C(c4ccc(F)cc4)CC(N4CCC(N)CC4)CN3C(=O)/C=C/c3c(C(F)(F)F)ccc(Cl)c3F)[nH]2)cc1` (stereo not drawn) [Example 20, methyl (4-{2-[4-amino-1′-{(2E)-3-[3-chloro-2-fluoro-6-(trifluoromethyl)phenyl]prop-2-enoyl}-5′-(4-fluorophenyl)-1,3′-bipiperidin-6′-yl]-1H-imidazol-5-yl}phenyl)carbamate], the IC50 is 128 nM.

Take `COC(=O)Nc1ccc(-c2c[nH]c(C3C(c4ccc(F)cc4)CC(N4CCC(N)CC4)CN3C(=O)/C=C/c3c(F)ccc(Cl)c3F)n2)cc1` (stereo not drawn) [Example 21, methyl [4-(2-{4-amino-1′-[(2E)-3-(3-chloro-2,6-difluorophenyl)prop-2-enoyl]-5′-(4-fluorophenyl)-1,3′-bipiperidin-6′-yl}-1H-imidazol-4-yl)phenyl]carbamate]: the IC50 came out at 407 nM.

In the case of `COC(=O)Nc1ccc(-c2c[nH]c([C@@H]3[C@H](C4CC4)C[C@H](N4CCC(N)CC4)CN3C(=O)/C=C/c3cc(Cl)ccc3-n3cnnn3)n2)cc1` [Example 22, methyl (4-{2-[(3′S,5′S,6′S)-4-amino-1′-{(2E)-3-[5-chloro-2-(1H-tetrazol-1-yl)phenyl]prop-2-enoyl}-5′-cyclopropyl-1,3′-bipiperidin-6′-yl]-1H-imidazol-4-yl}phenyl)carbamate], the half-maximal inhibitory concentration (IC50) was 671 nM.

As for `C[C@@H]1C[C@H](C2CCNCC2)CN(C(=O)/C=C/c2cc(Cl)ccc2-n2cnnn2)[C@@H]1C(=O)Nc1ccc(C(=O)O)cc1` [Example 24, 4-((3R,5R,6S)-1-((E)-3-(5-chloro-2-(1H-tetrazol-1-yl)phenyl)acryloyl)-5-methyl-[3,4′-bipiperidine]-6-carboxamido)benzoic acid], the IC50 worked out at 579 nM.

`C[C@@H]1C[C@H](C2CCNCC2)CN(C(=O)c2ccc(CN)c(C3CC3)c2)[C@@H]1C(=O)Nc1ccc(C(=O)O)cc1` [Example 25, 4-((3R,5R,6S)-1-(4-(aminomethyl)-3-cyclopropylbenzoyl)-5-methy-1-[3,4′-bipiperidine]-6-carboxamido) benzoic acid]: the IC50 came to 519 nM.

Take `COC(=O)Nc1ccc(-c2c[nH]c(C3C(c4ccc(F)cc4)CC(C4CCNCC4)CN3C(=O)/C=C/c3cc(Cl)ccc3-n3cnnn3)n2)cc1` (stereo not drawn) [Example 27, methyl (4-{2-[1-{(2E)-3-[5-chloro-2-(1H-tetrazol-1-yl)phenyl]prop-2-enoyl}-5-(4-fluorophenyl)-3,4′-bipiperidin-6-yl]-1H-imidazol-4-yl}phenyl)car-bamate]: the 50% inhibitory concentration (IC50) came out at 710 nM.

Regarding `O=C(Nc1ccc2[nH]ncc2c1)[C@@H]1[C@H](c2ccc(F)cc2)C[C@H](N2CCOCC2)CN1C(=O)/C=C/c1cc(Cl)ccc1-n1cnnn1` [Example 29, (2S,3S,5S)-1′-{(2E)-3-[5-Chloro-2-(1H-tetrazol-1-yl)phenyl]prop-2-enoyl}-3-(4-fluorophenyl)-N-1H-indazol-5-yl-5-morpholin-4-ylpiperidine-2-carboxamide], the IC50 came to 81.1 nM.

As to `O=C(Nc1ccc2[nH]ncc2c1)[C@H]1[C@@H](c2ccc(F)cc2)C[C@@H](N2CCNCC2)CN1C(=O)/C=C/c1cc(Cl)ccc1-n1cnnn1` [Example 30, (2R,3R,5R)-1-{(2E)-3-[5-chloro-2-(1H-tetrazol-1-yl)phenyl]prop-2-enoyl}-3-(4-fluorophenyl)-N-1H-indazol-5-yl-5-piperazin-1-ylpiperidine-2-carboxamide], the IC50 stood at 767 nM.

With `O=C(Nc1ccc2[nH]ncc2c1)[C@@H]1[C@H](c2ccc(F)cc2)C[C@H](N2CCNCC2)CN1C(=O)/C=C/c1cc(Cl)ccc1-n1cnnn1` [Example 31, (2S,3S,5S)-1-{(2E)-3-[5-chloro-2-(1H-tetrazol-1-yl)phenyl]prop-2-enoyl}-3-(4-fluorophenyl)-N-1H-indazol-5-yl-5-piperazin-1-ylpiperidine-2-carboxamide], the IC50 was determined as 40.9 nM.

Turning to `CC(=O)N1CCN([C@H]2C[C@@H](c3ccc(F)cc3)[C@@H](C(=O)Nc3ccc4[nH]ncc4c3)N(C(=O)/C=C/c3cc(Cl)ccc3-n3cnnn3)C2)CC1` [Example 32, (2S,3S,5S)-5-(4-acetylpiperazin-1-yl)-1-{(2E)-3-[5-chloro-2-(1H-tetrazol-1-yl)phenyl]prop-2-enoyl}-3-(4-fluorophenyl)-N-1H-indazol-5-ylpiperidine-2-carboxamide], the IC50 came out at 72.2 nM.
